Test results from ChEMBL document CHEMBL4765461, “Why All the Fuss about Oxidative Phosphorylation (OXPHOS)?” (J Med Chem, 2020).

Tests used:
[1] = Half life in CD1 mouse plasma at 10 mg/kg, ip by LC/MS/MS analysis; format: ADME, organism-based
[2] = Cmax in CD1 mouse plasma at 10 mg/kg, ip by LC/MS/MS analysis; format: ADME, organism-based; set-up: route intraperitoneal, dose 10 mg/kg
[3] = Half life in mouse plasma incubated up to 1440 mins by mass spectrometric analysis; format: ADME, cell-free
[4] = Inhibition of mitochondrial complex1 (unknown origin); set-up: species or system Homo sapiens
[5] = Inhibition of mitochondrial pyruvate carrier in Wistar rat liver mitochondria assessed as reduction in [1-14C]pyruvate uptake preincubated for 2 mins followed by rotenone and [1-14C]pyruvate addition by scintillation counting method
[6] = Inhibition of mitochondrial complex 1 in human A549 cells assessed as oxygen consumption rate by seahorse analysis; format: cell-based
[7] = molecular target: cAMP and cAMP-inhibited cGMP 3',5'-cyclic phosphodiesterase 10A (Homo sapiens) (UniProt Q9Y233); test: Inhibition of PDE10A (unknown origin)
[8] = Inhibition of F0F1-ATP synthase in yeast intact mitochondria by LDH/pyruvate kinase coupled enzyme assay; set-up: species or system Saccharomyces cerevisiae
[9] = Inhibition of yeast mitochondrial F0F1-ATP synthase by LDH/pyruvate kinase coupled enzyme assay; set-up: species or system Saccharomyces cerevisiae
[10] = Oral bioavailability in ICR mouse at 30 mg/kg; format: ADME, organism-based; settings: in vivo
[11] = Ratio of drug level in ICR mouse brain to plasma at 30 mg/kg, po by LC-MS analysis; format: ADME, organism-based; settings: read-out: BPR
[12] = Inhibition of mitochondrial complex 1 in human MiaPaCa-2 cells assessed as reduction in oxygen consumption incubated for 24 hrs; format: cell-based; settings: mia paca-2
[13] = Antiproliferative activity against human H2030-BrM3 cells by IncuCyte live-cell imaging assay; format: functional, cell-based
A549 = test: Antiproliferative activity against human A549 cells by IncuCyte live-cell imaging assay; format: functional, cell-based
[14] = Inhibition of Cytochrome b-c1 complex I304M/R306K double mutant in Rhodobacter capsulatus MT-RBC1
MCF7 = test: Inhibition of mammosphere formation in human MCF7 cells incubated for 5 days; format: functional, cell-based; settings: MCF7, 120 h
[15] = Growth inhibition of mouse GBM cells incubated for 4 days by Celltiter glo assay; format: functional, cell-based; settings: 96 h
GBM = test: Growth inhibition of patient derived GBM cells incubated for 4 days by Celltiter glo assay; format: functional, cell-based; settings: Homo sapiens, 96 h
[16] = Half life in ICR/CD-1 mouse S9 fraction incubated for 0 to 240 mins in presence of NADPH regenerating system by HPLC/MS analysis; format: ADME, subcellular; settings: time 0-240 min
[17] = Inhibition of mitochondrial complex 1 in human NCI-H460 cells assessed as reduction in oxygen consumption rate by seahorse analysis; format: cell-based
[18] = Inhibition of mitochondrial complex 1 in Sprague-Dawley rat heart mitochondria by spectrophotometric method
[19] = Inhibition of mitochondrial complex 1 in bovine heart mitochondria incubated for 3 hrs and measured up to 30 mins by colorimetric method
[20] = Inhibition of mitochondrial complex 1 in human NCI-H460 cells assessed as reduction in cell proliferation incubated for 48 hrs under galactose containing medium by cell titer glow assay; format: cell-based; settings: NCI-H460, 48 h
[21] = Inhibition of mitochondrial complex 1 in human PC-3 cell mitochondria assessed as reduction in oxygen consumption using glutamate/malate/ADP as substrate by oxygen sensitive fluorescent dye based assay

cAMP and cAMP-inhibited cGMP 3',5'-cyclic phosphodiesterase 10A (Homo sapiens), sequence (Q9Y233 whole entry): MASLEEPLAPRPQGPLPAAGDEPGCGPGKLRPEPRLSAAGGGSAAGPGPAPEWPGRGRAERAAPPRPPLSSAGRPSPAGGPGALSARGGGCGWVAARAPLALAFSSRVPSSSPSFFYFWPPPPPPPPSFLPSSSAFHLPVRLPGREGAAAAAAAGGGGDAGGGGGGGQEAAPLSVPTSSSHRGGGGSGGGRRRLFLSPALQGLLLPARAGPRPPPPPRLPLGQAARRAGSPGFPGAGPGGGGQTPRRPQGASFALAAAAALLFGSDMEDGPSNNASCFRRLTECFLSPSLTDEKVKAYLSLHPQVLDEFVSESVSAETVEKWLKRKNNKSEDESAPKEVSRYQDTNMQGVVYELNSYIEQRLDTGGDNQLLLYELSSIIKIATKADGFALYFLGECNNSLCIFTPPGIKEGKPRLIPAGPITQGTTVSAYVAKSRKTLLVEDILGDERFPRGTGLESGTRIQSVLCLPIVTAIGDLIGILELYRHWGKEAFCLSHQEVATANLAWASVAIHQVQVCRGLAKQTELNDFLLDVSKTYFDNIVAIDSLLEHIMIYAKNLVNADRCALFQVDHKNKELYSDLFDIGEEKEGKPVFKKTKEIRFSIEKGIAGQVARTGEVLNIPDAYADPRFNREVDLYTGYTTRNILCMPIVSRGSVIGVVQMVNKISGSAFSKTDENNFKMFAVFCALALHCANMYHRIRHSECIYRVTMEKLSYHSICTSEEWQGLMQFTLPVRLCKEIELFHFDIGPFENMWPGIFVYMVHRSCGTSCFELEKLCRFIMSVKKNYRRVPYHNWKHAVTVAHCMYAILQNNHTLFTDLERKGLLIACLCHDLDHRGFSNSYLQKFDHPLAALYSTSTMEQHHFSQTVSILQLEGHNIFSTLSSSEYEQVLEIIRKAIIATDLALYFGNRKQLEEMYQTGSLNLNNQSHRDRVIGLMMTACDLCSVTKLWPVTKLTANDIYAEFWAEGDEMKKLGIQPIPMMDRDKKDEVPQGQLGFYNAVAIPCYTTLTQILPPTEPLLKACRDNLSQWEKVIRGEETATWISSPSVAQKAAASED

**Q.** For CC(C)[C@@H]1CC[C@@H](C)C[C@H]1OC(=O)Cn1c(-c2cccc(C(F)(F)F)c2)[n+](C)c2ccccc21.[I-], which half-life [1] is on record?
**A.** Its half-life is 15.2 h.

**Q.** What about the Cmax [2] of the same compound?
**A.** Its Cmax is 375 ng/g.

**Q.** What about the half-life [3] of the same compound?
**A.** The half-life was 5.1 h.

**Q.** With C=C(C)[C@H]1Cc2c(ccc3c2O[C@@H]2COc4cc(OC)c(OC)cc4[C@@H]2C3=O)O1 [ROTENONE] as the compound, how does the IC50 [4] read?
**A.** The IC50 was 0.1 µM.

**Q.** Which Ki [5] does the source give for O=C(O)c1nn(Cc2ccc(Cl)cc2Cl)c2ccccc12 [LONIDAMINE] here?
**A.** The Ki was 2.5 µM.

**Q.** Which IC50 [6] does the source give for COc1cc2ccnc(Cc3cccc4ccccc34)c2cc1OC here?
**A.** Its IC50 is 7.2 µM.

**Q.** And the IC20 [7]?
**A.** The IC20 was 13.4 µM.

**Q.** Which Ki [8] does the source give for COC[C@@H](C[C@H]1O[C@@](O)([C@H](O)[C@@H]2C[C@H](OC)[C@@H](O)CC/C=C(C)/C=C/[C@@H](O[C@@H]3O[C@@H](C)[C@H](OC)[C@@H](O)[C@@H]3O)[C@H](C)/C=C(C)/C=C(C)/C=C(\C)C(=O)O2)[C@H](C)[C@@H](O)[C@H]1C)O[C@H]1C[C@](C)(O)[C@@H](O[C@H]2C[C@@H](OC)[C@H](O)[C@@H](C)O2)[C@H](C)O1 here?
**A.** Its Ki is 5 µM.

**Q.** What about the Ki [9] of the same compound?
**A.** The Ki was 4 µM.

**Q.** Which results are given for N=C(NC(=N)N1CCCC1)Nc1ccc(OC(F)(F)F)cc1 [LIXUMISTAT]?
**A.** bioavailability [10]: 72.9%; Kp [11]: 0.37

**Q.** With N=C(N)NC(=N)NCCCCCCCCCC[P+](c1ccccc1)(c1ccccc1)c1ccccc1 as the compound, how does the IC50 [12] read?
**A.** Its IC50 is 0.4 µM.

**Q.** For O=C(NCCCCCCCCCC[P+](c1ccccc1)(c1ccccc1)c1ccccc1)c1nn(Cc2ccc(Cl)cc2Cl)c2ccccc12, which IC50 [13] is on record?
**A.** Its IC50 is 0.74 µM.

**Q.** And the IC50 (A549)?
**A.** The IC50 was 0.69 µM.

**Q.** What does the source list for O=C1C(O)=C([C@H]2CC[C@H](c3ccc(Cl)cc3)CC2)C(=O)c2ccccc21 [ATOVAQUONE]?
**A.** IC50 [14]: 0.01 µM; IC50 (MCF7): 1 µM

**Q.** With CCc1n(CC(=O)O[C@@H]2C[C@H](C)CC[C@H]2C(C)C)c2ccccc2[n+]1C.[Cl-] as the compound, how does the IC50 [15] read?
**A.** The IC50 was 0.15 µM.

**Q.** What about the IC50 (GBM) of the same compound?
**A.** Its IC50 is 1 µM.

**Q.** And the half-life [16]?
**A.** The half-life was 3.62 h.

**Q.** And the half-life [3]?
**A.** Its half-life is 0.0667 h.

**Q.** With Cc1nc(-c2nc(-c3ccc(OC(F)(F)F)cc3)no2)nn1Cc1cccc(N2CCC(S(C)(=O)=O)CC2)c1 as the compound, how does the IC50 [17] read?
**A.** Its IC50 is 0.0014 µM.

**Q.** For Cc1ccc(Sc2cccc3[nH]c4nc(N)nc(N)c4c23)cc1, which IC50 [18] is on record?
**A.** Its IC50 is 9.9 µM.

**Q.** With COc1ccc(Cc2nccc3cc(OC)c(OC)cc23)cc1OC [PAPAVERINE] as the compound, how does the IC50 [6] read?
**A.** The IC50 was 15.4 µM.

**Q.** And the IC20 [7]?
**A.** Its IC20 is 0.65 µM.

**Q.** With FC(F)(F)c1ccc(/C=C/c2nc(COc3ccc(CCCCn4ccnn4)cc3)co2)cc1 [MUBRITINIB] as the compound, how does the IC50 [19] read?
**A.** Its IC50 is 0.051 µM.

**Q.** Which IC50 [12] does the source give for CN(C)C(=N)NC(=N)N [METFORMIN] here?
**A.** The IC50 was 1100 µM.

**Q.** And the Kp [11]?
**A.** Its Kp is 0.1.

**Q.** And the IC50 [13]?
**A.** The IC50 was 139 µM.

**Q.** And the IC50 (A549)?
**A.** The IC50 was 208 µM.

**Q.** With Cc1cc(-c2nc(-c3ccc(OC(F)(F)F)cc3)no2)nn1Cc1ccnc(N2CCN(C3CC3)CC2)c1 as the compound, how does the EC50 [20] read?
**A.** The EC50 was 0.003 µM.

**Q.** And the IC50 [21]?
**A.** Its IC50 is 0.01 µM.
